Experimental data from patent publication US20190100549A1, “FLAVONOIDE-TYPE COMPOUNDS BEARING AN O-RHAMNOSYL RESIDUE” (Universitaet Hamburg, priority 2016, published 2019).
Several values for one entry are separate records, joined by “and”; a condition that tells them apart may be missing. Equal values may be shown once.

Experiments:
[1] = tested on: hydrogen peroxide (DHR) in NHEK cells; assay: Protection against UV-induced H2O2 stress in NHEK (DHR probe, flow cytometry); assay type: cell-based, human
Procedure: Pre-incubated NHEK were incubated with the test compound for 24 h. Then the specific fluorescence probe for the measurement of hydrogen peroxide (DHR) or lipid peroxides (C11-fluor) was added and incubated for 45 min. Irradiation occurred with in H2O2 determination UVB at 180 mJ/cm^2 (+UVA at 2839 mJ/cm^2) or UVB at 240 mJ/cm^2 (+UVA at 3538 mJ/cm^2) in lipid peroxide, respectively, using a SOL500 Sun Simulator lamp. After irradiation the cells were post-incubated for 30 min before flow-cytometry analysis.

procollagen I = assay: Procollagen I synthesis in NHDF (ELISA); assay type: cell-based, human; settings: 100 μM, 72 hours
Procedure: (§1) Tests were performed with normal human dermal fibroblast cultures at the 8th passage. Cells were grown in DMEM supplemented with glutamine at 2 mM, penicillin at 50 U/mL and streptomycin (50 μg/mL) and 10% of fetal calf serum (FCS) at 37° C. in a 5% CO2 atmosphere.
(§2) Fibroblasts were cultured for 24 hours before the cells were incubated with the test compounds for further 72 hours. After the incubation the culture supernatants were collected in order to measure the released quantities of procollagen I, VEGF, and fibronectin by means of ELISA. Reference test compounds were vitamin C (procollagen I), PMA (VEGF), and TGF-β (fibronectin).

VEGF = VEGF release in NHDF (ELISA); assay type: cell-based, human; settings: 100 μM, 72 hours
Procedure: as §1, §2

NF-κB = NF-κB activity in NIH3T3-KBF-Luc cells stimulated with TNFα (luciferase); assay type: cell-based; settings: for % Activation: TNFα alone = 100
Procedure: NIH3T3-KBF-Luc cells were stably transfected with the KBF-Luc plasmid (Sancho (2003) Mol Pharmacol 63:429-438), which contains three copies of NF-κB binding site (from major histocompatibility complex promoter), fused to a minimal simian virus 40 promoter driving the luciferase gene. Cells (1×10^4 for NIH3T3-KBF-Luc) were seeded the day before the assay on 96-well plate. Then the cells were treated with the test substances for 15 min and then stimulated with 30 ng/ml of TNFα. After 6 h, the cells were washed twice with PBS and lysed in 50 μl lysis buffer containing 25 mM Tris-phosphate (pH 7.8), 8 mM MgCl2, 1 mM DTT, 1% Triton X-100, and 7% glycerol during 15 min at RT in a horizontal shaker. Luciferase activity was measured using a GloMax 96 microplate luminometer (Promega) following the instructions of the luciferase assay kit (Promega, Madison, Wis., USA). […] The experiments for each concentration of the test items were done in triplicate wells.

STAT3 = STAT3 activity in HeLa-STAT3-luc cells stimulated with IFN-γ (luciferase); assay type: cell-based; settings: +IFNγ 25 U/ml; for RLU 1 / RLU 2 / RLU 3: HeLa-STAT3-luc cells; for RLU 1: replicate well 1; for RLU 2: replicate well 2; for RLU 3: replicate well 3; for RLU specific: mean minus control; for Mean: mean of triplicate wells; for % Activation: IFNγ alone = 100% activation
Procedure: HeLa-STAT3-luc cells were stably transfected with the plasmid 4xM67 pTATA TK-Luc. Cells (20×10^3 cells/ml) were seeded 96-well plate the day before the assay. Then the cells were treated with the test substances for 15 min and then stimulated with IFN-γ 25 IU/ml. After 6 h, the cells were washed twice with PBS and lysed in 50 μl lysis buffer containing 25 mM Tris-phosphate (pH 7.8), 8 mM MgCl2, 1 mM DTT, 1% Triton X-100, and 7% glycerol during 15 min at RT in a horizontal shaker. Luciferase activity was measured using GloMax 96 microplate luminometer (Promega) following the instructions of the luciferase assay kit (Promega, Madison, Wis., USA). […] The experiments for each concentration of the test items were done in triplicate wells.

[2] = 100 μM, 180 mJ/cm^2 UVB (2839 mJ/cm^2 UVA)

## COc1ccc(C2CC(=O)c3c(cc(O)cc3O[C@@H]3O[C@@H](C)[C@H](O)[C@@H](O)[C@H]3O)O2)cc1O (stereo partly drawn) [HESR1, Hesperetin-5-O-α-L-rhamnoside]
[1]
  anti-oxidative function on mitochondrially produced hydrogen peroxids species (in words): anti-oxidative function
[1]; [2]
  H2O2 % irradiated control: 62%
  H2O2 (AU) Mean: 1152 AU
  H2O2 Protection %: 45%
[1]; 100 μM, 180 mJ/cm^2 UVB (2839 mJ/cm^2 UVA), single values
  H2O2 (AU) (DHR GMFI): 1046 AU and 1258 AU
Procollagen I
  Procollagen I % Control: 118%
  Procollagen I Mean: 1968 ng/mL
Procollagen I; single values
  Procollagen I: 1929 ng/mL and 2007 ng/mL
VEGF
  Mean VEGF: 73 pg/mL
  VEGF % Control: 101%
  VEGF % Stimulation: 1%
VEGF; single values
  VEGF: 70 pg/mL and 76 pg/mL
NF-κB; 10 μM + 30 ng/ml TNFα
  RLU 1: 186120 RLU
  RLU 2: 181040 RLU
  RLU 3: 182280 RLU
  RLU MEAN: 183147 RLU
  RLU specific: 145883 RLU
  % Activation: 178.4%
NF-κB; 25 μM + 30 ng/ml TNFα
  RLU 1: 218940 RLU
  RLU 2: 216580 RLU
  RLU 3: 213320 RLU
  RLU MEAN: 216280 RLU
  RLU specific: 179017 RLU
  % Activation: 218.9%
STAT3; 25 μM test substance
  RLU 1: 13396 RLU
  RLU 2: 12243 RLU
  RLU 3: 12859 RLU
  RLU specific: 10825 RLU
  Mean: 12833 RLU
  % Activation: 86.48%
STAT3; 50 μM test substance
  RLU 1: 14303 RLU
  RLU 2: 13124 RLU
  RLU 3: 11985 RLU
  RLU specific: 11130 RLU
  Mean: 13137 RLU
  % Activation: 88.92%
